Measured values taken from ChEMBL document CHEMBL1201862, “PubChem BioAssay data set” (2004).
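1) Cells in 96-well plates. 2) Compound, 48 h, 5 concentrations. 3) Linear interpolation between surrounding doses. 4) Unreached endpoint = highest concentration. GI50 marks 50% less growth.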 The source made the active and inactive calls. Rule as the data show it: active = GI50 up to about 1.1 µM and inactive = higher.

Experiments:
Experiment in all cases: inhibition of tumour cell growth, NCI panel, 48 h
IGROV-1 = system: IGROV-1
A549 = system: A549
SW-620 = system: SW-620
T47D = system: T47D
MCF7 = system: MCF7
RXF 393 = system: RXF 393
SK-OV-3 = system: SK-OV-3
HOP-92 = system: HOP-92
K562 = system: K562
786-0 = system: 786-0
OVCAR-5 = system: OVCAR-5
SF-268 = system: SF-268
SF-295 = system: SF-295
COLO 205 = system: COLO 205
MDA-MB-435 = system: MDA-MB-435
NCI-H460 = system: NCI-H460
MDA-MB-231 = system: MDA-MB-231
SK-MEL-28 = system: SK-MEL-28
EKVX = system: EKVX
NCI-H522 = system: NCI-H522

Measured: GI50

CC(C)c1ccc(C(c2c(O)oc3ccccc3c2=O)c2c(O)oc3ccccc3c2=O)cc1
inactive: IGROV-1 24.8 µM | A549 19.1 µM | SW-620 17.1 µM | T47D 31.2 µM | MCF7 27.9 µM | RXF 393 21.8 µM | SK-OV-3 27 µM | HOP-92 7.85 µM | K562 18.2 µM | 786-0 21.1 µM | OVCAR-5 17.6 µM | SF-268 25.6 µM | SF-295 20 µM | COLO 205 18.7 µM | MDA-MB-435 20.4 µM | NCI-H460 18.7 µM | MDA-MB-231 21.4 µM | SK-MEL-28 18.9 µM | EKVX 22.9 µM | NCI-H522 20 µM

Cc1ccc(C)c(COCCOCn2c(=O)[nH]c(=O)c3cc(Br)ccc32)c1
inactive: IGROV-1 60.3 µM | A549 > 100 µM | SW-620 > 100 µM | T47D 74.6 µM | MCF7 > 100 µM | RXF 393 > 100 µM | SK-OV-3 > 100 µM | HOP-92 > 100 µM | K562 > 100 µM | 786-0 29.4 µM | OVCAR-5 > 100 µM | SF-268 52.6 µM | SF-295 > 100 µM | COLO 205 > 100 µM | MDA-MB-435 > 100 µM | NCI-H460 > 100 µM | MDA-MB-231 66.4 µM | SK-MEL-28 39.5 µM | EKVX > 100 µM | NCI-H522 62.4 µM

CCC(c1ccc(N(C)C)cc1)C1NC(=S)NC1=O (centres undefined)
inactive: IGROV-1 58.3 µM | A549 > 100 µM | SW-620 68.9 µM | T47D 78.3 µM | MCF7 > 100 µM | RXF 393 > 100 µM | SK-OV-3 > 100 µM | HOP-92 > 100 µM | K562 20.1 µM | 786-0 > 100 µM | OVCAR-5 > 100 µM | SF-268 > 100 µM | SF-295 67.9 µM | COLO 205 98.2 µM | MDA-MB-435 34.4 µM | NCI-H460 > 100 µM | MDA-MB-231 > 100 µM | SK-MEL-28 > 100 µM | EKVX 51.5 µM | NCI-H522 > 100 µM

CC(=O)OC1=c2ccccc2=C(O)C2C1C=NN2C(C)=O (centres undefined)
inactive: IGROV-1 99.3 µM | A549 > 100 µM | SW-620 > 100 µM | T47D > 100 µM | MCF7 > 100 µM | RXF 393 > 100 µM | SK-OV-3 > 100 µM | HOP-92 > 100 µM | K562 18.4 µM | 786-0 > 100 µM | OVCAR-5 > 100 µM | SF-268 > 100 µM | SF-295 > 100 µM | COLO 205 95.3 µM | MDA-MB-435 > 100 µM | NCI-H460 > 100 µM | MDA-MB-231 > 100 µM | SK-MEL-28 > 100 µM | EKVX 79.4 µM | NCI-H522 > 100 µM

CCc1cccc(CC)c1NC(=O)C(C#N)C1=C(Cl)C(=O)c2ccccc2C1=O (centres undefined)
inactive: IGROV-1 17.8 µM | A549 18.5 µM | SW-620 9.33 µM | T47D 3.79 µM | MCF7 14.6 µM | RXF 393 16.3 µM | SK-OV-3 19.7 µM | HOP-92 2.96 µM | K562 2.33 µM | 786-0 16.4 µM | OVCAR-5 18.8 µM | SF-268 16.6 µM | SF-295 15.7 µM | COLO 205 20.3 µM | MDA-MB-435 14.5 µM | NCI-H460 22.6 µM | MDA-MB-231 5.55 µM | SK-MEL-28 20.6 µM | EKVX 21.1 µM | NCI-H522 8.55 µM

NCC(=O)N1CCN(c2nc(N3CCCC3)c3nc(Cl)c(NCc4ccccc4)nc3n2)CC1
inactive: IGROV-1 1.63 µM | A549 1.87 µM | SW-620 2.66 µM | T47D 1.42 µM | MCF7 1.83 µM | RXF 393 1.43 µM | SK-OV-3 1.81 µM | HOP-92 1.45 µM | 786-0 1.69 µM | OVCAR-5 2.91 µM | SF-268 2.07 µM | SF-295 1.86 µM | COLO 205 1.7 µM | MDA-MB-435 1.85 µM | NCI-H460 1.85 µM | MDA-MB-231 1.85 µM | SK-MEL-28 2.23 µM | EKVX 1.87 µM | NCI-H522 1.78 µM

O=c1cc(CO)oc(C(O)c2ccccc2)c1O (centres undefined)
inactive: IGROV-1 > 100 µM | A549 > 100 µM | SW-620 > 100 µM | T47D > 100 µM | MCF7 > 100 µM | RXF 393 > 100 µM | SK-OV-3 > 100 µM | HOP-92 > 100 µM | 786-0 > 100 µM | OVCAR-5 > 100 µM | SF-268 > 100 µM | SF-295 > 100 µM | COLO 205 > 100 µM | MDA-MB-435 > 100 µM | NCI-H460 > 100 µM | MDA-MB-231 > 100 µM | SK-MEL-28 > 100 µM | NCI-H522 > 100 µM

C=CC(C)(C)/C(=C\CO[Si](C(C)C)(C(C)C)C(C)C)C(=O)N(C)c1ccccc1I
inactive: IGROV-1 15.5 µM | A549 10.7 µM | SW-620 12.6 µM | T47D 9.98 µM | MCF7 11.5 µM | RXF 393 11.4 µM | SK-OV-3 16.3 µM | HOP-92 8.61 µM | 786-0 14.5 µM | OVCAR-5 13.9 µM | SF-268 11.5 µM | SF-295 13 µM | COLO 205 16.4 µM | MDA-MB-435 24.9 µM | NCI-H460 13.6 µM | MDA-MB-231 13.3 µM | SK-MEL-28 14.2 µM | EKVX 16 µM | NCI-H522 5.62 µM

CCc1cccc(C(C)C)c1NC(=O)C(=O)C1C(=O)Nc2ccccc2[S+]1[O-] (centres undefined)
inactive: IGROV-1 38.9 µM | A549 > 100 µM | SW-620 > 100 µM | T47D > 100 µM | MCF7 > 100 µM | RXF 393 56.1 µM | SK-OV-3 > 100 µM | HOP-92 > 100 µM | 786-0 > 100 µM | OVCAR-5 > 100 µM | SF-268 > 100 µM | SF-295 > 100 µM | COLO 205 > 100 µM | MDA-MB-435 > 100 µM | NCI-H460 > 100 µM | MDA-MB-231 > 100 µM | SK-MEL-28 > 100 µM | EKVX 57.8 µM | NCI-H522 > 100 µM

O=C1c2ccc(O)cc2OC(c2cc(O)c(O)c(O)c2)C1O (centres undefined) [DIHYDROBINETIN]
inactive: IGROV-1 18 µM | A549 > 100 µM | SW-620 25 µM | T47D 37.8 µM | MCF7 25.7 µM | RXF 393 > 100 µM | SK-OV-3 > 100 µM | HOP-92 > 100 µM | 786-0 23.8 µM | OVCAR-5 58.2 µM | SF-268 34.1 µM | SF-295 21.8 µM | COLO 205 32.4 µM | MDA-MB-435 19.8 µM | NCI-H460 19.8 µM | MDA-MB-231 21.1 µM | SK-MEL-28 46.8 µM | EKVX 19 µM | NCI-H522 24.8 µM
